± gives the expanded uncertainty stated by the source.
Experiment: wn = mass fraction of the nth substance listed
Conditions: 298 K, 100 kPa, Liquid; for mass density: Vibrating tube method

CCCC(=O)O [butanoic acid] + O
Conditions	mass density [kg/m3]
w1 = 6.86e-05	997.07 ± 10
w1 = 0.000154	997.07 ± 10
w1 = 0.000352	997.09 ± 10
w1 = 0.000628	997.08 ± 10
w1 = 0.000783	997.12 ± 10
w1 = 0.00206	997.2 ± 10
w1 = 0.0023	997.22 ± 10
w1 = 0.00429	997.33 ± 10
w1 = 0.00704	997.57 ± 10
w1 = 0.00763	997.62 ± 10
w1 = 0.0151	998.25 ± 10
w1 = 0.0157	998.3 ± 10
w1 = 0.0285	999.62 ± 10
w1 = 0.0453	1001.89 ± 10
w1 = 0.0508	1002.79 ± 10
w1 = 0.0589	1004.25 ± 10
w1 = 0.073	1000.5 ± 10
w1 = 0.087	1001.01 ± 10
w1 = 0.0974	1014.17 ± 10

CCCCCCCCCC(=O)[O-].CCCCCCCCCCCCCC[P+](CCCCCC)(CCCCCC)CCCCCC [trihexyltetradecylphosphonium decanoate] + O
Conditions	viscosity [mPa·s]
Cone and plate viscometry, w2 = 0.162	96.1 ± 10

Conditions	mass density [kg/m3]
w2 = 0.162	900 ± 9
